These results are taken from patent publication US20090105322A1, “PHARMACEUTICAL COMPOSITION COMPRISING VALSARTAN” (priority 2003, published 2009).

SMILES strings stand for the structures.

Data set [1] concerns cardiac hemodynamics in CHF patients (NYHA Class II-IV). Put plainly: Protocol 103: chronic central hemodynamic effects in non-ACE inhibitor treated CHF patients. Format: in vivo, human. The conditions noted are these: 40, 80 and 160 mg b.i.d. for 4 weeks; preliminary trial results. On the procedure:
Two Phase II studies (Protocols 103 and 104) have been recently completed. Protocol 103 is a randomized, double-blind, placebo-controlled, parallel group, dose ranging trial to determine the chronic central hemodynamic effects of valsartan 40 mg b.i.d., 80 mg b.i.d., 160 mg b.i.d. and lisinopril 10 mg o.d. administered for 4 weeks to non-ACE inhibitor treated CHF patients (NYHA Class II-IV).

Data set [2] deals with AF occurrence in patients with symptomatic HF (EF<40% and dilated ventricle-LVIDD>2.9). The data set is described as follows: Occurrence of AF from adverse event reports in the Val-HeFT trial. The data set is classed as in vivo, human. As for the experimental part: The occurrence of AF was evaluated based on adverse event reports in the patients with symptomatic heart failure (ejection fraction<40% and dilated ventricle-left ventricular internal diastolic diameter (LVIDD)>2.9) enrolled in the Val-HeFT trial. The Val-HeFT trial is set forth in Example 2. The occurrence of AF was evaluated based on adverse event reports in the patients with symptomatic HF (EF<40% and dilated ventricle-LVIDD>2.9) enrolled in the Val-HeFT trial (set forth in Example 2). Patients were randomized to valsartan or placebo on top of the prescribed treatments for heart failure. During the 23 months of follow-up of the study, AF was reported in 328/5000 patients (6.6%), 132/2506 (5.27%) in the valsartan allocated patients and 196/2494 (7.86%) in those allocated to placebo (p=0.0002). […] This is a multicountry, randomized, double-blind, forced titration, parallel, placebo-controlled trial. Patients will be stratified according to their use of beta blockers at randomization. At Visit 2, patients who meet the randomization criteria will be stratified according to their use of beta blockers and randomized to receive either valsartan 40 mg b.i.d. or placebo (Level 1). After 2 weeks of treatment (Visit 3), patients will be titrated up to receive either valsartan 80 mg b.i.d. or placebo, respectively (Level 2). The criteria for titration are given below. Following another 2 week treatment period (Visit 4), patients will again be titrated up to receive valsartan 160 mg b.i.d. or placebo, respectively (Level 3). The criteria for titration are given below. Patients not tolerating the highest dose of valsartan will be titrated down to the next lower dose after 2 weeks of treatment (Visit 5).

The subject of data set [3] is systolic and diastolic blood pressure in patients with essential arterial hypertension. Put plainly: Treatment of patients with essential arterial hypertension. The conditions noted are these: 80 mg o.d.; compared with ACE inhibitors and other antihypertensive medications. Format: in vivo, human. From the text:
Valsartan (CGP 48933) is an orally active, potent and specific competitive Ang II antagonist at the level of the AT1-receptor subtype.

Data set [4] deals with rapid pacing induced heart failure. The data set is described as follows: Rapid pacing induced heart failure model in mini pigs. The data set is classed as in vivo. The conditions noted are these: valsartan in combination with an ACE inhibitor, compared to either ACE inhibition or AT1-receptor blockade alone. The source says:
The effect of valsartan alone and in combination with an ACE inhibitor was studied in a model of rapid pacing induced heart failure in mini pigs.

Turning to `CCCCC(=O)N(Cc1ccc(-c2ccccc2-c2nnn[nH]2)cc1)[C@H](C(=O)O)C(C)C` [valsartan, (S)-N-(1-carboxy-2-methyl-prop-1-yl)-N-pentanoyl-N-[2; (1H-tetrazol-5-yl)biphenyl-4-yl-methyl]amine], the “Cardiac hemodynamics versus placebo” value in data set [1] is “clinically relevant and statistically significant improvements in cardiac hemodynamics versus placebo”. Besides, the “AF reported (percent of allocated patients)” value in data set [2] (23 months of follow-up, valsartan on top of prescribed heart failure treatments, vs placebo 7.86%, p=0.0002) was found to be 5.27%. Moreover, the “AF reported (patients with AF / patients allocated)” value in data set [2] (23 months of follow-up, valsartan on top of prescribed heart failure treatments, vs placebo 196/2494) was 132/2506. For the same molecule, the “Reduction of the incidence of AF” value in data set [2] (valsartan added to prescribed therapy (93% ACE-inhibitors, 35% beta-blockers)) was roughly 35%. Also, the “RR for AF occurrence (logistic regression analysis)” value in data set [2] (valsartan treatment as independent predictor, 95% CI: 0.52-0.82) is 0.65. In data set [3], the “Decreases in systolic and diastolic blood pressure” value was “comparable to those achieved by treatment with ACE inhibitors and other antihypertensive medications”; the Tolerability profile entry was “more favorable tolerability profile”. For the same molecule, the “Left ventricular function and geometry, and myocyte inotropic response” value in data set [4] was “further beneficial effects on left ventricular function and geometry, and myocyte inotropic response”.
